Where “and” joins values, the source holds several entries; their conditions need not be identical. Identical values can stand only once.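 Each compound was tested at five concentrations against cells in 96-well plates for 48 hours. GI50: concentration for 50% inhibition of growth. Definition used: TGI = concentration required for complete inhibition of growth.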
Assays:
Test in all cases: inhibition of tumour cell growth, NCI panel, 48 h
HOP-62 NSCLC = system: HOP-62 NSCLC
M14 melanoma = system: M14 melanoma
U251 CNS = system: U251 CNS
OVCAR-8 ovarian = system: OVCAR-8 ovarian
HCC-2998 colon = system: HCC-2998 colon
MALME-3M melanoma = system: MALME-3M melanoma
HT29 colon = system: HT29 colon
SF-268 CNS = system: SF-268 CNS
COLO 205 colon = system: COLO 205 colon

Row | Structure (SMILES) | GI50 (HOP-62 NSCLC) | TGI (HOP-62 NSCLC) | GI50 (M14 melanoma) | TGI (M14 melanoma) | GI50 (U251 CNS) | TGI (U251 CNS) | GI50 (OVCAR-8 ovarian) | TGI (OVCAR-8 ovarian) | GI50 (HCC-2998 colon) | TGI (HCC-2998 colon) | GI50 (MALME-3M melanoma) | TGI (MALME-3M melanoma) | GI50 (HT29 colon) | TGI (HT29 colon) | GI50 (SF-268 CNS) | TGI (SF-268 CNS) | GI50 (COLO 205 colon) | TGI (COLO 205 colon)
1 | Cc1cc(N2CCCC2)nc(N(CCCNc2ccnc3cc(Cl)ccc23)Cc2ccc3c(c2)OCO3)n1 | 1830 nM | 10200 nM | 1370 nM | 3040 nM | 1570 nM | 5200 nM | 1800 nM | 5410 nM | 1790 nM | 3790 nM | 1650 nM | 3200 nM | 541 nM | 2830 nM | 2890 nM | 16600 nM | 1390 nM | 3000 nM
2 | Nc1nc(Nc2cccc(F)c2)nc2ccccc12 | 17100 nM | 38500 nM | – | – | 16800 nM | 34600 nM | 31900 nM | > 100000 nM | 18000 nM | 37300 nM | 18600 nM | 37500 nM | 21400 nM | 39300 nM | 28500 nM | > 100000 nM | 15900 nM | 34000 nM
3 | N#CC1C(N)=NNC12Nc1ccccc1N2 (stereo not given) | 64300 nM | > 100000 nM | 65900 nM | > 100000 nM | 22600 nM | > 100000 nM | 200 nM | 21400 nM | 31900 nM | > 100000 nM | – | – | – | – | – | – | 16500 nM | 48900 nM
4 | CC(=O)OC1C2(CC3N4C(=O)C5(CO)SSC4(CC31O)C(=O)N5C)OC(C)C(C)(C)C2=O (stereo not given) | 575 nM | 1080 nM | 253 nM | 722 nM | < 10 nM | – | < 49.5 nM | 222 nM | < 18 nM | 53.8 nM | 154 nM | – | < 10 nM | – | 896 nM | 2950 nM | – | –
5 | CC(C)OC(=O)c1ccc2[nH]c(O)c(C(=Nc3ccc(N(C)C(=O)CN4CCN(C)CC4)cc3)c3ccccc3)c2c1 | 471 nM | 2400 nM | 451 nM | 1900 nM | 622 nM | 2400 nM | 622 nM | 3170 nM | 792 nM | 2210 nM | 859 nM | 2290 nM | 280 nM | 3830 nM | 387 nM | 2000 nM | 285 nM | 1410 nM
6 | Cc1ccc2c(c1)ncn2-c1ncnc2c1CC(C)c1ccccc1N2C (stereo not given) | 174 nM | 13600 nM | 58.7 nM | 14100 nM | 86 nM | 13900 nM | 381 nM | 22900 nM | 304 nM | 14500 nM | 51.3 nM | 4600 nM | 92.2 nM | 14500 nM | 209 nM | 15600 nM | 198 nM | 666 nM
7 | CCCCCc1c(C)[nH]c(/C=C2\N=C(c3ccc[nH]3)C=C2Oc2ccc(Cl)cc2)c1C | 148 nM and 187 nM | 14600 nM | 78.9 nM and 20.3 nM | – | 65.8 nM and 19 nM | 749 nM and 192 nM | 160 nM and 29.6 nM | 1980 nM | 43.9 nM and 24.1 nM | 2670 nM and 7350 nM | 337 nM and 129 nM | 1600 nM and 1540 nM | 40.2 nM and 28 nM | 18300 nM | 76.7 nM and 33.8 nM | 3180 nM | 129 nM and 28.9 nM | 1770 nM and 1180 nM
8 | CCCCC[C@H]1C/C=C2/C(=O)C(Cl)=C[C@@H]2C/C=C\CCCC(=O)O[C@@H](CCCCC)C/C=C2/C(=O)C(Cl)=C[C@@H]2C/C=C\CCCC(=O)O1 | 416 nM | 1010 nM | 390 nM | 1070 nM | 291 nM | 652 nM | 380 nM | 1590 nM | 349 nM | 651 nM | 504 nM | 1850 nM | 460 nM | 1440 nM | 479 nM | 1680 nM | 316 nM | 687 nM
9 | S=c1ssc(Sc2ccccn2)c1Cl | 17500 nM | 31300 nM | 14000 nM | 27000 nM | 11000 nM | 22900 nM | 20300 nM | 40800 nM | 3970 nM | 15100 nM | – | – | 3430 nM | > 100000 nM | 13500 nM | 26400 nM | 19200 nM | 38700 nM
10 | Cn1cc(-c2ccc3c(c2)CCN3C(=O)Cc2cccc(C(F)(F)F)c2)c2c(N)ncnc21 | 8170 nM | 29200 nM | 1700 nM | 16200 nM | 2690 nM | 17700 nM | 4470 nM | 40500 nM | 13100 nM | 28400 nM | 2030 nM | 13300 nM | 3610 nM | 16300 nM | 9000 nM | 26500 nM | 4230 nM | 17900 nM
11 | CCc1c2c(nc3cccc(N)c13)-c1cc3c(c(=O)n1C2)COC(=O)[C@]3(O)CC | 1.43 nM | 4290 nM | 2.02 nM | 2970 nM | < 1 nM | 34.8 nM and 30 nM | 2.24 nM | > 100000 nM | 34.9 nM and 20 nM | 1390 nM and 11400 nM | 44.8 nM and 11 nM | 2300 nM and 3110 nM | – | 655 nM | 2.33 nM | 78000 nM | 328 nM | –
12 | CCc1c[nH]c2ncnc(N3CC[C@@](N)(CNC(=O)c4ccc(F)cc4F)C3)c12 | 30500 nM | > 100000 nM | 54900 nM | > 100000 nM | 46400 nM | > 100000 nM | 48100 nM | > 100000 nM | 50700 nM | > 100000 nM | 33400 nM | > 91200 nM | 62000 nM | > 100000 nM | 38000 nM | > 100000 nM | 29800 nM | > 100000 nM
13 | O=C1CCC2(c3ccccc3)Nc3cc(Cl)ccc3N12 (stereo not given) | – | > 100000 nM | – | > 100000 nM | – | > 100000 nM | – | > 100000 nM | – | > 100000 nM | – | 75500 nM | – | > 100000 nM | – | > 100000 nM | – | 31600 nM
14 | COc1cc(/C=C(/c2ccccc2)[N+](=O)[O-])c(OC)c2c1OCO2 | 2320 nM | 5120 nM | 1560 nM | 3300 nM | 1520 nM | 3050 nM | 2120 nM | 6740 nM | 1970 nM | 3440 nM | 1530 nM | 3210 nM | 2640 nM | 13100 nM | 1840 nM | 3920 nM | 1980 nM | 4250 nM

Reference: PubChem BioAssay (NCI)
